Read-outs that look alike come from different tables or passages of the source.
Columns and labels:
[1] = Pharmacokinetics in control rats after gavage of JYPs; assay type: in vivo, Sprague Dawley (SD) rats; settings: for half-life / Tmax / AUC(0-inf) / AUC(0-t) / Cmax / MRT inf / MRT last: male, rat, plasma; for Tmax: po; for MRT inf: read-out: MRT(0-∞); for MRT last: read-out: MRT(0-t)
From the text: According to the established method for the analysis of serum biological samples, the pharmacokinetics of various components of rat serum were investigated after the administration of different dosages of JYPs to control rats.
For the control experiment, healthy male Sprague Dawley (SD) rats of SPF grade ([…] ± 20 g) were purchased from Sipeifu (Beijing) Biotechnology Co., Ltd. (Beijing, China), Animal Quality Certificate No. 110324220102348616. For the ADHD model rats, healthy male SHR rats of SPF grade, weighing 220 ± 20 g, were purchased from SBF (Beijing) Biotechnology Co., Ltd. (Beijing, China), License No. SCXK (Yu) 2019-0010. The animals were accommodated in the Animal Center of Henan University of Traditional Chinese Medicine, which successfully underwent an ethical audit with ethics number DWLL202208003. The animals were bred under controlled conditions at a temperature of 24 °C and a relative humidity of 50 ± 2%. Before the experiment, the animals abstained from eating for 12 h and had unrestricted access to water. The feeding and experimental research conducted on the experimental animals adhered to the laws outlined in the Management of Experimental Animals in Henan Province.
JYPs were ground into a fine powder and sieved through 60-mesh sieves; then, 20 g of fine JYP powder was taken, having been weighed precisely. A precise volume of 50 mL of pure water was added and mixed well to prepare a 0.4 g/mL suspension solution of JYPs, which was then stored in the refrigerator at 4 °C.
This study involved 24 healthy male SD rats with a body mass of 220 ± 20 g and 24 healthy male ADHD rats with a body mass of 220 ± 20 g. Subjects abstained from food for a duration of 12 h before the experiment and consumed water without restriction. Both kinds of rats were randomly divided into four groups: a blank group, given an equal dose of water intragastrically, and 3 different administration groups: rats given the equivalent human dose of JYPs by gavage in doses of 1.080 g/kg/d, 2.160 g/kg/d, and 4.320 g/kg/d. Tail vein blood was collected at 0.083, 0.25, 0.5, 0.75, 1, 1.5, 2, 3, 4, 6, 8, 12, 18, and 24 h after dosing. About 0.5 mL of blood was collected in sodium heparin centrifugal tubes, then centrifuged at 4 °C for 10 min at a speed of 3500r/min. We took the upper layer and placed it at −80 °C for preservation.
We took 200 μL of plasma, added 600 μL of methanol solution and 50 μL of internal standard (100 ng/mL), and subjected it to shaking for 5 min, followed by centrifugation at 4 °C at 12,000 r/min for 10 min. The supernatant was collected and allowed to dry, then reconstituted with 50 μL of 50% methanol and centrifuged at 4 °C at 14,000 r/min for a further 10 min. The supernatant after this process was taken as the test solution. A volume of 5 μL was used for UPLC-MS analysis. The drug concentration in plasma was calculated with the aid of the internal standard.
Chromatographic conditions: Hypersil GOLD (100 × 2.1 mm, 1.9 μm) column; column temperature 35 °C; mobile phase acetonitrile (A)/0.1% formic acid aqueous solution (B); gradient elution; gradient elution program: 0–0.5 min (95% B–95% B), 0.5–8 min (95% B–50% B), 8–14 min (50% B–20% B), 14–20 min (20% B–5% B), 20–22 min (5% B–5% B), 22–25 min (95% B–95% B); flow rate 0.2 mL/min; injection volume 5 μL.

[2] = parameters: method as in PMID 32135035; settings: rats, oral dosing; cited from earlier work
[3] = Sprague Dawley, oral JYPs, range over compounds and doses, read-out: half-life (t1/2)
[4] = Sprague Dawley, oral JYPs, read-out: peak time (Tmax)
[5] = Sprague-Dawley, 1.08 g/kg/day, oral JYPs low dose 1.080 g/kg/d (1st of 3 values)
[6] = Sprague-Dawley, 1.08 g/kg/day, oral JYPs low dose 1.080 g/kg/d (1st of 3 values), read-out: t1/2 (converted)
[7] = Sprague-Dawley, 2.16 g/kg/day, oral JYPs medium dose 2.160 g/kg/d (2nd of 3 values)
[8] = Sprague-Dawley, 2.16 g/kg/day, oral JYPs medium dose 2.160 g/kg/d (2nd of 3 values), read-out: t1/2 (converted)
[9] = Sprague-Dawley, 4.32 g/kg/day, oral JYPs high dose 4.320 g/kg/d (3rd of 3 values)
[10] = Sprague-Dawley, 4.32 g/kg/day, oral JYPs high dose 4.320 g/kg/d (3rd of 3 values), read-out: t1/2 (converted)
[11] = Sprague-Dawley, 1.08 g/kg/day, oral JYPs low dose 1.080 g/kg/d (1st of 3 values), read-out: Tmax
[12] = Sprague-Dawley, 2.16 g/kg/day, oral JYPs medium dose 2.160 g/kg/d (2nd of 3 values), read-out: Tmax
[13] = oral JYPs high dose 4.320 g/kg/d (3rd of 3 values)
[14] = oral JYPs low dose 1.080 g/kg/d (1st of 3 values)
[15] = oral JYPs medium dose 2.160 g/kg/d (2nd of 3 values)
[16] = Sprague-Dawley, 4.32 g/kg/day, oral JYPs high dose 4.320 g/kg/d (3rd of 3 values), read-out: Tmax

SMILES | half-life [1, 3] [h] | Tmax [1, 4] [h] | AUC(0-inf) [1, 5] [ng·h/mL] | AUC(0-t) [1, 5] [ng·h/mL] | Cmax [1, 5] [ng/mL] | MRT inf [1, 5] [h] | half-life [1, 6] [h] | AUC(0-t) [1, 7] [ng·h/mL] | Cmax [1, 7] [ng/mL] | MRT last [1, 7] [h] | MRT inf [1, 7] [h] | half-life [1, 8] [h] | AUC(0-inf) [1, 9] [ng·h/mL] | AUC(0-t) [1, 9] [ng·h/mL] | Cmax [1, 9] [ng/mL] | MRT last [1, 9] [h] | MRT inf [1, 9] [h] | half-life [1, 10] [h] | Tmax [1, 11] [h] | Tmax [1, 12] [h] | also measured
C[C@H]1O[C@@H](O[C@H]2CC[C@@]3(C)[C@@H](CC[C@]4(C)[C@@H]3C=C[C@]35OC[C@@]6(CCC(C)(C)C[C@H]63)[C@@H](O)C[C@]54C)[C@]2(C)CO)[C@H](O)[C@@H](O[C@@H]2O[C@H](CO)[C@@H](O)[C@H](O)[C@H]2O)[C@H]1O [Saikosaponin A] | 7.52 to 13.7 | < 1 | 135 ± 49.8 | 120 ± 40.6 | 38.9 ± 10.4 | 9.57 ± 3.88 | 7.52 ± 2.66 | 149 ± 49.5 | 47.4 ± 11.7 | 6.42 ± 0.6 | 13.3 ± 9.41 | 10.8 ± 9.21 | 245 ± 44.7 | 221 ± 42.5 | 67.4 ± 14.2 | 6.07 ± 1.19 | 9.11 ± 3.69 | 7.8 ± 3.3 | 0.53 ± 0.22 | 0.39 ± 0.17 | AUMC(0-t) [1, 13]: 1333.05± 317.31 ng/mL*(h)²; AUMC(0-ꝏ) [1, 13]: 2265.45± 1085.76 ng/mL*(h)²; Clearances [1, 13]: 4464.90 ± 760.17 mL/h; AUMC(0-t) [1, 14]: 792.28± 390.55 ng/mL*(h)²; AUMC(0-ꝏ) [1, 14]: 1355.37± 1006.84 ng/mL*(h)²; MRT(0-t) [1, 14]: 6.55 ± 1.64 h; Vss [1, 14]: 21125.87 ± 12315.99 mL; AUC(0-∞) [1, 15]: 177.04 ± 46.52 ng·h/mL; AUMC(0-t) [1, 15]: 935.87± 261.97 ng/mL*(h)²; AUMC(0-ꝏ) [1, 15]: 2307.92± 1659.75 ng/mL*(h)²; Clearances [1, 15]: 3201.17 ± 894.28 mL/h; Vss [1, 15]: 42581.43 ± 30523.07 mL
C[C@H]1O[C@@H](O[C@H]2CC[C@@]3(C)[C@@H](CC[C@]4(C)[C@@H]3C=C[C@]35OC[C@@]6(CCC(C)(C)C[C@H]63)[C@H](O)C[C@]54C)[C@]2(C)CO)[C@H](O)[C@@H](O[C@@H]2O[C@H](CO)[C@@H](O)[C@H](O)[C@H]2O)[C@H]1O [Saikosaponin D] | 7.52 to 13.7 | < 1 | 97.3 ± 56.5 | 79.6 ± 44.6 | 21.5 ± 5.52 | 13.4 ± 4.81 | 11.4 ± 4.14 | 96.8 ± 29.3 | 30.1 ± 6.87 | 6.87 ± 0.65 | 13.3 ± 6.43 | 10.9 ± 6.69 | 157 ± 34.9 | 116 ± 12.3 | 41.8 ± 17.7 | 7.1 ± 1.12 | 16.6 ± 6.52 | 13.7 ± 5.61 | 0.43 ± 0.23 | 0.54 ± 0.1 | MRT last [1, 5]: 7.08 ± 1.57 h; AUC(0-inf) [1, 7]: 117 ± 33.2 ng·h/mL; Tmax [1, 16]: 0.33 ± 0.13 h; AUMC(0-t) [1, 13]: 830.12± 197.07 ng/mL*(h)²; AUMC(0-ꝏ) [1, 13]: 2785.93± 1472.47 ng/mL*(h)²; Vss [1, 13]: 68432.42 ± 15413.77 mL; AUMC(0-t) [1, 14]: 592.40± 473.29 ng/mL*(h)²; AUMC(0-ꝏ) [1, 14]: 1331.60± 1006.07 ng/mL*(h)²; Clearances [1, 14]: 2081.51 ± 796.95 mL/h; Vss [1, 14]: 27762.67 ± 16738.07 mL; AUMC(0-t) [1, 15]: 662.12± 211.50 ng/mL*(h)²; AUMC(0-ꝏ) [1, 15]: 1586.66± 988.85 ng/mL*(h)²; Vss [1, 15]: 41378.73 ± 24017.48 mL
CCC/C=C1\OC(=O)C2=C1CCC=C2 [Z-Ligustilide] | 14.4 to 24 | < 2 | 40.8 ± 9.33 | 28.7 ± 8.22 | 3.37 ± 1.11 | 20.4 ± 8.24 | 15.4 ± 5.99 | 32.7 ± 6.04 | 4.47 ± 1.9 | 8.96 ± 0.63 | 32 ± 20.9 | 24 ± 16.9 | 53.4 ± 9.38 | 36.5 ± 7.42 | 5.27 ± 1.27 | 8.76 ± 0.37 | 21.6 ± 6.2 | 16.4 ± 5.4 | 1.67 ± 0.52 | 1.17 ± 0.41 | MRT last [1, 5]: 8.54 ± 1.12 h; AUC(0-inf) [1, 7]: 58.6 ± 20.7 ng·h/mL; Tmax [1, 16]: 1.13 ± 0.44 h; AUMC(0-t) [1, 13]: 319.41± 64.35 ng/mL*(h)²; AUMC(0-ꝏ) [1, 13]: 1163.41± 438.24 ng/mL*(h)²; AUMC(0-t) [1, 14]: 244.45± 72.75 ng/mL*(h)²; AUMC(0-ꝏ) [1, 14]: 839.61± 369.47 ng/mL*(h)²; AUMC(0-t) [1, 15]: 291.74± 50.18 ng/mL*(h)²; AUMC(0-ꝏ) [1, 15]: 2206.47± 2197.92 ng/mL*(h)²; oral bioavailability [2]: relatively poor

— publication PMC10976160, “Comparative Pharmacokinetics Research of 13 Bioactive Components of Jieyu Pills in Control and Attention Deficit Hyperactivity Disorder Model Rats Based on UPLC-Orbitrap Fusion MS” (Molecules, 2024)
